The target in data set [1] is Recombinant human JAK3 enzyme (JAK3 kinase region; Ala795-Ser1124) (Homo sapiens, UniProt P52333). The data set can be described thus: JAK3 Kinase Assay (Kinase-Glo luminescent, ATP consumption). Conditions: read-out: Inhibition rate (%) of JAK3 kinase activity. A general note: Kinase-Glo measures the ATP left after a reaction by luminescence.
Recombinant human JAK3 enzyme (JAK3 kinase region; Ala795-Ser1124), sequence (P52333 795-1124): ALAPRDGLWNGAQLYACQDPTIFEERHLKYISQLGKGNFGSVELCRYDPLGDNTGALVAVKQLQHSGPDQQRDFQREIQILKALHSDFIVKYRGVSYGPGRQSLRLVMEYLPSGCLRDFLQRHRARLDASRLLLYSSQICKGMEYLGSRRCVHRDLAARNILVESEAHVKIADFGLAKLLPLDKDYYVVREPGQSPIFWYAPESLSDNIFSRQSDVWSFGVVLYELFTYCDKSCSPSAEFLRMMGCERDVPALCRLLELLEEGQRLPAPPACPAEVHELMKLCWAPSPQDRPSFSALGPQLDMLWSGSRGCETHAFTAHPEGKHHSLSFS
Experimental: Recombinant human JAK3 enzyme (JAK3 kinase region; Ala795-Ser1124) was purchased from Carna Biosciences, Inc.
The reaction was conducted in a kinase buffer (reaction volume: a total of 50 μl) containing 8 mM MOPS (pH 7.0), 0.2 mM EDTA, a test compound solution prepared to each concentration and 0.5 μg/ml JAK3 enzyme using a 96-well polystyrene plate (clear-bottom white-wall). […] After incubating them at room temperature for 2 hours, 50 μl of Kinase-Glo Luminescent Kinase Assay reagent (Promega) was added to each well, and further incubated at room temperature for 10 minutes. Using a chemiluminescence microplate reader MicroLumat LB96P (Berthold), chemiluminescence intensity was measured to quantitate the amount of ATP remaining after reaction. From the amount of ATP consumed in the phosphorylation reaction, the inhibition rate (%) of JAK3 kinase activity was determined.

Turning to `CNCCN1CCN(c2ccc(Nc3cc(NCc4cc(F)cc(F)c4)c(C(N)=O)cn3)cc2)CC1` [Example 251, 4-[(3,5-difluorobenzyl)amino]-6-[(4-{4-[2-(methylamino)ethyl]piperazin-1-yl}phenyl)amino]pyridine-3-carboxyamide], the melting point was 113 to 120 °C (dec.). The inhibition at 0.1 µM in data set [1] worked out at 88%.

Regarding `CC(C)NC(=O)N1CCC(Nc2ccc(Nc3cc(NCc4ccccc4)c(C(N)=O)cn3)cc2)CC1` [Example 291, 4-(benzylamino)-6-[(4-{[1-(propan-2-ylcarbamoyl)piperidin-4-yl]amino}phenyl)amino]pyridine-3-carboxyamide], the melting point fell in the range of 166 to 167 °C. The inhibition at 0.1 µM in data set [1] turned out to be 79%.

As to `NC(=O)c1cnc(Nc2ccc(N3CCOCC3)c(Cl)c2)cc1NCc1cc(F)cc(F)c1` [Example 127, 6-[(3-chloro-4-morpholinophenyl)amino]-4-[(3,5-difluorobenzyl)amino]pyridine-3-carboxyamide], the melting point is 222 to 223 °C (dec.). Moreover, in data set [1], the inhibition at 0.1 µM turned out to be 81%.

In the case of `CCN(CC)CC(=O)N1CCN(c2ccc(Nc3cc(NCc4cccc([N+](=O)[O-])c4)c(C(N)=O)cn3)cc2)CC1` [Example 276, 6-({4-[4-(N,N-diethylglycyl)piperazin-1-yl]phenyl}amino)-4-[(3-nitrobenzyl)amino]pyridine-3-carboxyamide], the melting point is 190 to 191 °C (dec.). For the same compound, in data set [1], the inhibition at 0.1 µM was determined as 68%.

As for `N#Cc1cc(Nc2cc(NCc3cc(F)cc(F)c3)c(C(N)=O)cn2)ccc1N1CCOCC1` [Example 125, 6-[(3-cyano-4-morpholinophenyl)amino]-4-[(3,5-difluorobenzyl)amino]pyridine-3-carboxyamide], the melting point is 213.5 to 214.1 °C (dec.). Besides, the inhibition at 0.1 µM in data set [1] amounted to 61%.

Turning to `CCCC(=O)N1CCN(c2ccc(Nc3cc(NCc4ccccc4)c(C(N)=O)cn3)cc2)CC1` [Example 258, 4-(benzylamino)-6-{[4-(4-butanoylpiperazin-1-yl)phenyl]amino}pyridine-3-carboxyamide], the melting point is 233.5 to 235.2 °C (dec.). In data set [1], the inhibition at 0.1 µM amounted to 60%.

For the compound `NC(=O)c1cnc(Nc2ccc(NC3CCNCC3)cc2)cc1NCc1ccccc1` [Example 289, 4-(benzylamino)-6-{[4-(piperidin-4-ylamino)phenyl]amino}pyridine-3-carboxyamide], the melting point was 169 to 172 °C (dec.). In data set [1], the inhibition at 0.1 µM was determined as 74%.

The compound `CC(=O)N1CCCN(c2ccc(Nc3cc(NCc4ccccc4)c(C(N)=O)cn3)cc2)CC1` [Example 256, 6-{[4-(4-acetyl-1,4-diazepan-1-yl)phenyl]amino}-4-(benzylamino)pyridine-3-carboxyamide] returned a melting point of 224 to 227 °C. Besides, in data set [1], the inhibition at 0.1 µM stood at 77%.

For `Cc1c(F)cccc1CNc1cc(Nc2ccc(N3CCOCC3)cc2)ncc1C(N)=O` [Example 100, 4-[(3-fluoro-2-methylbenzyl)amino]-6-[(4-morpholinophenyl)amino]pyridine-3-carboxyamide], the melting point was 229 to 230 °C. In data set [1], the inhibition at 0.1 µM was 69%.

In the case of `NC(=O)c1cnc(Nc2cccc(N3CCOCC3)c2)cc1NCc1cc(F)cc(F)c1` [Example 131, 4-[(3,5-difluorobenzyl)amino]-6-[(3-morpholinophenyl)amino]pyridine-3-carboxyamide], the melting point was 197 to 198 °C (dec.). Further, in data set [1], the inhibition at 0.1 µM amounted to 91%.

On to `NC(=O)c1cnc(Nc2ccc(N3CCC(O)CC3)cc2)cc1NCc1cc(F)cc(F)c1` [Example 191, 4-[(3,5-difluorobenzyl)amino]-6-{[4-(4-hydroxypiperidino)phenyl]amino}pyridine-3-carboxyamide], for which the melting point is 238 to 240 °C (dec.). The inhibition at 0.1 µM in data set [1] worked out at 63%.

Take `CC(C)S(=O)(=O)N1CCN(c2ccc(Nc3cc(NCc4cc(F)cc(F)c4)c(C(N)=O)cn3)cc2)CC1` [Example 170, 4-[(3,5-difluorobenzyl)amino]-6-({4-[4-(propan-2-ylsulfonyl)piperazin-1-yl]phenyl}amino) pyridine-3-carboxyamide]: the melting point is 239 to 242 °C (dec.). Besides, the inhibition at 0.1 µM in data set [1] is 68%.

`C[C@@H]1CN(c2ccc(Nc3cc(NCc4c(F)cccc4F)c(C(N)=O)cn3)cc2)C[C@H](C)N1` [Example 143, 4-[(2,6-difluorobenzyl)amino]-6-({4-[(3R,5S)-3,5-dimethylpiperazin-1-yl]phenyl}amino) pyridine-3-carboxyamide]: the melting point was 218 to 219 °C. The inhibition at 0.1 µM in data set [1] turned out to be 88%.

What is called melting point is the temperature, or range, at which the solid turns liquid. By inhibition is commonly meant the drop in the measured response relative to a control, in per cent.
